The results in this text go back to patent publication US9834525B2, “Inhibitors of paxillin function and related compositions and methods” (UNIVERSITY OF TENNESSEE RESEARCH FOUNDATION, priority 2015, dated 2017).

The series in a line: Microsomal stability, pooled mouse liver microsomes. The following applies: 1 μM, 37° C., 60 min. The class given is in vitro ADME. As for the experimental part:
Microsomal stability of compound (II-4) (1 μM) was assessed in pooled liver microsomes (human, mouse, and rat) (FIG. 7). Briefly, compound (II-4) was incubated in duplicate with microsomes at 37° C. Reactions contained microsomal protein in 100 mM potassium phosphate, 2 mM NADPH, 3 mM MgCl2, pH 7.4. NADPH was omitted to detect NADPH-free degradation. At 60 minutes, the reaction was stopped by adding ice-cold methanol containing internal standard. Samples were centrifuged to remove precipitated protein, and the supernatants were analyzed by LC/MS/MS to quantitate the remaining parent.
Microsomal stability of compound (II-4) (1 μM) was assessed in pooled liver microsomes (human, mouse, and rat) (FIG. 23). Briefly, compound (II-4) was incubated in duplicate with microsomes at 37° C. Reactions contained microsomal protein in 100 mM potassium phosphate, 2 mM NADPH, 3 mM MgCl2, pH 7.4. NADPH was omitted to detect NADPH-free degradation. At 60 min, the reaction was stopped by adding ice-cold methanol (+ internal standard). Samples were centrifuged to remove precipitated protein, and the supernatants were analyzed by LC/MS/MS to quantitate the remaining parent.

`COc1cc(C2OC(=O)Nc3c2ccc2ccccc32)cc(OC)c1OC` (stereo not shown) [compound II-4]: the “microsomal stability (metabolism by cytochrome P-450 enzymes)” value was “rapidly metabolized”.
